Results from patent publication US20210145983A1, “METHODS AND COMPOSITIONS OF INHIBITING CSF1R FOR TREATING ALLERGIC INFLAMMATION” (THE BOARD OF TRUSTEES OF THE UNIVERSITY OF ILLINOIS, priority 2018, published 2021).

Assays:
[1] = test system: acute DRA induced murine model of asthma; test: acute DRA induced murine model of asthma; format: in vivo, mouse; conditions: 10 mg/kg intraperitoneally on day 10, 12 and 14
From the text: B. Experimental Design. DRA triple allergens were delivered via intranasal route as depicted.

IgE = conditions: cited from earlier work
IgE, sequence (P01854 1-426 limits assumed): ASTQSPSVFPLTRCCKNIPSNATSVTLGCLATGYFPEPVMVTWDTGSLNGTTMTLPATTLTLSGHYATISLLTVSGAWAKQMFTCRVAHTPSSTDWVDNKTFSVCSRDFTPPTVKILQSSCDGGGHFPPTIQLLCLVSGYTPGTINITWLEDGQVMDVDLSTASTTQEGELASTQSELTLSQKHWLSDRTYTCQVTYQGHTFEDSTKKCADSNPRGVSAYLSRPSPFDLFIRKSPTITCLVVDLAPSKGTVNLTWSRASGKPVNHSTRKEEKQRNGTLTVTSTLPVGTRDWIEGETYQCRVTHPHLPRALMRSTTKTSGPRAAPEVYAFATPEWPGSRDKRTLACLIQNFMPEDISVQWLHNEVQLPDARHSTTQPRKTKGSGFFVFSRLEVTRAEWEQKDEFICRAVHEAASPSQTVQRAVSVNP

Molecule	Th2 cytokine increase in BAL fluids [1]	allergic lung inflammation (lung pathology) [1]	eosinophil recruitment to BAL fluid [1]	serum IgE rise [1]	control of asthma exacerbations (IgE; inner city children already sensitized to cockroach, Busse W W, et al. 2011)	control of seasonal exacerbations (IgE; pre-seasonal treatment, poorly controlled asthmatics, Teach S J, et al. 2015)
FC(F)(F)c1ccc(CNc2ccc(Cc3c[nH]c4ncc(Cl)cc34)cn2)cn1 [PLX3397, 5-((5-chloro-1H-pyrrolo[2,3-b]pyridin-3-yl)methyl)-N-((6-(trifluoromethyl)pyridin-3-yl)methyl)pyridin-2-amine]	attenuated	markedly reduced	blocked	attenuated	–	–
omalizumab: a humanized monoclonal anti-IgE antibody	–	–	–	–	significant benefit	effective
